Data as given in ChEMBL document CHEMBL1154233, “Minor furanocoumarins and coumarins in grapefruit peel oil as inhibitors of human cytochrome P450 3A4” (J Nat Prod, 2009).

Target: Cytochrome P450 3A4 (Homo sapiens, UniProt P08684)
Test: Inhibition of CYP3A4 after 30 mins by fluorescence microplate reader assay; call rule not given here
Type: ADME

Cytochrome P450 3A4, sequence (P08684 whole entry): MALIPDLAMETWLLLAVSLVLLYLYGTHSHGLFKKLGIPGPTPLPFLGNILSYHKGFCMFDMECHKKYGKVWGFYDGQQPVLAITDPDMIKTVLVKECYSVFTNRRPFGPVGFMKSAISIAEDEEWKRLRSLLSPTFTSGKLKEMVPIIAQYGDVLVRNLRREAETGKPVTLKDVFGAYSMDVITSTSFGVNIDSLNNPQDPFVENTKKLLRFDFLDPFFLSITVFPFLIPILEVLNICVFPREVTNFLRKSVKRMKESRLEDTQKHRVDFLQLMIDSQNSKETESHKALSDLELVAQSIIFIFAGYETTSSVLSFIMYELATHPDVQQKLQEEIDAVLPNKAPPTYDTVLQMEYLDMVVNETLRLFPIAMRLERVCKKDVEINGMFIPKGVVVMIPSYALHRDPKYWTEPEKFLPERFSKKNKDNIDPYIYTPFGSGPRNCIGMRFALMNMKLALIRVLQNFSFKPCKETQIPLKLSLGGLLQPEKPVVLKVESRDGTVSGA

Row | Compound | IC50 (read-out: IC50) [µM] | IC50
1 | C/C(=C\COc1c2ccoc2cc2oc(=O)ccc12)CC[C@@H](O)C(C)(C)O | 1.58 | 
2 | C/C(=C\COc1ccc2ccc(=O)oc2c1)CC[C@@H](O)C(C)(C)O [R-(+)-MARMIN] |  | Not Active
3 | CC(C)=CCC/C(C)=C/COc1c2ccoc2cc2oc(=O)ccc12 [BERGAMOTTIN] | 2.42 | 

More lines, now with the values ahead:

Row | IC50 (read-out: IC50) [µM] | IC50 | Compound
4 | 0.27 |  | CCCCCCCCCC1O[C@H](CC/C(C)=C/COc2c3ccoc3cc3oc(=O)ccc23)C(C)(C)O1 (some centres not stated)
5 |  | Not Active | CCCCCCCCCC1O[C@H](CC/C(C)=C/COc2ccc3ccc(=O)oc3c2)C(C)(C)O1 (some centres not stated)
6 | 0.13 |  | CCCCCCCC1O[C@H](CC/C(C)=C/COc2c3ccoc3cc3oc(=O)ccc23)C(C)(C)O1 (some centres not stated)
7 |  | Not Active | CC(C)=CCC/C(C)=C/COc1ccc2ccc(=O)oc2c1 [AURAPTENE]
